These are literature values, as cited in patent US20040204482A1, “Extended release oral dosage form” (priority 2001, published 2004).

For the data set the following is noted: in vivo.

Consider `NC(=O)c1ccc(F)c2c1C[C@@H](N(C1CCC1)C1CCC1)CO2.O.O=C(O)C(O)C(O)C(=O)O` [(R)-3-N,N-dicyclobutylamino-8-fluoro-3,4-dihydro-2H-1-benzopyran-5-carboxamide hydrogen (2R,3R)-tartrate monohydrate], for which the “plasma elimination half-life, t1/2” value was 1.5 h.
